The record followed here is publication PMC8443647, “Hybrid derivative of cathelicidin and human beta defensin-2 against Gram-positive bacteria: A novel approach for the treatment of bacterial keratitis” (Scientific Reports, 2021).

Like-named read-outs stand apart in the source and are kept apart here. Bridge positions count the residues as written; N and C are the ends. Ends that are not written are not given here. Peptide text beside a SMILES is read from it. A value given as a limit tells only on which side of the number the result lay.

One data set relates to P. aeruginosa PAO1-L. The data set can be described thus: microbe, parasite or virus in culture. Type of data set: cell-based. The text has this: (§1) A range of Gram-positive and Gram-negative laboratory- and clinical-strain bacteria were used for the experiments. These included laboratory-strain methicillin-sensitive S. aureus (MSSA; including SH1000 and ATCC SA29213), laboratory-strain MRSA (ATCC MRSA43300), clinical-strain MRSA (MRSA-OS; an IK isolate), laboratory-strain methicillin-sensitive Staphylococcus epidermidis (MSSE; ATCC SE12228), laboratory invasive-strain P. aeruginosa (PAO1-L), and clinical cytotoxic-strain P. aeruginosa (PA-OS; an IK isolate).
(§2) In vitro antimicrobial efficacy of the antibiotics and designed HDPs was determined using an established MIC assay with broth microdilution method approved by the Clinical and Laboratory Standards Institute (CLSI)[64]. Briefly, the microorganisms were cultured on Tryptone Soya Agar (TSA) and incubated overnight for 18–21 h at 37 °C. Bacterial inoculums were subsequently prepared using the direct colony suspension method. Three to five bacterial colonies were obtained from the agar plate and inoculated into an Eppendorf tube containing 1 ml of cation-adjusted Muller-Hinton broth (caMHB), consisting of 20–25 mg/L calcium ions (Ca^2+) and 10–12.5 mg/L magnesium ions (Mg^2+). The bacterial suspension was adjusted to achieve a turbidity equivalent to 0.1 OD600 or 0.5 MacFarland, containing ~ 1.5 × 10^8 colony-forming unit (CFU)/ml, which was then further diluted in 1:150 in caMHB to reach a final bacterial concentration of ~ 1 × 10^6 colony forming units (CFU)/ml. Each treatment (peptide or antibiotic) was prepared in 1:2 serial dilution in 96-well polypropylene microplates (with a final treatment volume of 50 μl per well), followed by the addition of 50 μl of 1 × 10^6 CFU/ml bacteria into each well (with a final bacterial concentration of 5 × 10^5 CFU/ml).

In data set [1] the test system is human corneal epithelial cells (HCE-2). The data set can be described thus: in vitro. Type of data set: cell-based. The protocol: (§3) Cell viability and cytotoxicity of antibiotics and peptides were determined against human corneal epithelial cells (HCE-2, CRL-11135, ATCC, Manassas, Virginia, USA) using cell-counting-kit-8 (CCK-8) assay (Sigma Aldrich, Merck Life Science UK Limited, Dorset, UK) and lactate dehydrogenase (LDH) assay (ThermoFisher Scientific, UK), respectively, as per manufacturer’s guidelines. HCE-2 cells were cultured and seeded into a 96-well plate at a density of 7.5 × 10^3 cells/well and allowed to attach overnight and grew to 80–90% confluency in keratinocyte serum free medium (KSFM) supplemented with human recombinant epidermal growth factor, bovine pituitary extract, hydrocortisone, and insulin. Once the confluency reached 80–90%, the cells were incubated with treatment for 3 h before OD450 measurement was taken using BMG Clariostar microplate reader (BMG Labtech Ltd., Aylesbury, UK). Appropriate controls were used, including 0.1% Triton X-100 as positive control and KSFM as negative control. Cell viability was calculated using the following formula: [([…]) × 100; I = intensity] and cytotoxicity was calculated using the following formula: [((Itreatment – INC)/(IPC – INC)) × 100].

The nature of another data set: in vitro. Type of data set: cell-based, human. Particulars: human. The protocol: as §3
Data set [2] has as its system human corneal epithelial cells (HCE-2). Briefly: cells. It counts as cell-based. Particulars: 3 h. The protocol: as §3
The next data set concerns MRSA-OS. The data set can be described thus: microbe, parasite or virus in culture. Particulars: 24 h. Type of data set: cell-based, Staphylococcus aureus.
Source text: as §1, §2

The next data set concerns S. aureus SH1000. Briefly: microbe, parasite or virus in culture. Type of data set: cell-based, Staphylococcus aureus.
Source text: as §1, §2

The subject of another data set is P. aeruginosa PA-OS. The data set can be described thus: microbe, parasite or virus in culture. Particulars: 24 h. It counts as cell-based.
Source text: as §1, §2

Data set [3] concerns Gram-positive or Gram-negative bacteria. Briefly: MIC assay, all tested organisms summarised. Type of data set: cell-based. Particulars: summary over the organisms tested, without salt.
Source text: as §1
In vitro antimicrobial efficacy of the antibiotics and designed HDPs was determined using an established MIC assay with broth microdilution method approved by the Clinical and Laboratory Standards Institute (CLSI)[64]. Briefly, the microorganisms were cultured on Tryptone Soya Agar (TSA) and incubated overnight for 18–21 h at 37 °C. Bacterial inoculums were subsequently prepared using the direct colony suspension method. Three to five bacterial colonies were obtained from the agar plate and inoculated into an Eppendorf tube containing 1 ml of cation-adjusted Muller-Hinton broth (caMHB), consisting of 20–25 mg/L calcium ions (Ca^2+) and 10–12.5 mg/L magnesium ions (Mg^2+). […]

The mark [4] stands for this setting: 0 mM NaCl, caMHB, read-out: MIC.
Where [5] appears, read: 0 mM NaCl, caMHB, 24 h, read-out: MIC.
The mark [6] stands for this setting: 0 mM NaCl, caMHB, 24 h, listed as LL-37.

In the case of `CC[C@H](C)[C@H](NC(=O)[C@H](CCCNC(=N)N)NC(=O)[C@H](CCC(N)=O)NC(=O)[C@@H](NC(=O)[C@@H](NC(=O)[C@H](CCCNC(=N)N)NC(=O)[C@@H](N)CCCCN)[C@@H](C)CC)C(C)C)C(=O)N[C@@H](CCCCN)C(=O)N[C@@H](CC(=O)O)C(=O)N[C@@H](Cc1ccccc1)C(=O)N[C@@H](CC(C)C)C(=O)N[C@@H](CCCNC(=N)N)C(=O)N[C@@H](CCCCN)C(=O)N[C@@H](CS)C(=O)N[C@@H](CS)C(=O)N[C@@H](CCCCN)C(=O)N[C@@H](CCCCN)C(=O)N1CCC[C@H]1C(=O)O` [CaD2, KRIVQRIKDF LRKCCKKP] (H-KRIVQRIKDFLRKCCKKP-OH; N-terminus and C-terminus assumed), the MIC was more than 200 µg/mL against P. aeruginosa PAO1-L (PAO1, 24 h); more than 200 µg/mL in the data set on MRSA-OS (-OS); more than 200 µg/mL against S. aureus SH1000 (SH1000, 24 h). Further, the “Lmax (%): percentage of cytotoxicity at 200 µg/ml” value in data set [1] was 2.9 (2.2) %. The molecule also yielded a CC50 at 3 h in “in vitro” of more than 200 µg/mL. In addition, in data set [2], the “IC50 (concentration causing 50% inhibition of cell viability)” value is more than 200 µg/mL.
For the molecule `CC[C@H](C)[C@H](NC(=O)[C@H](CCCNC(=N)N)NC(=O)[C@H](CCC(N)=O)NC(=O)[C@@H](NC(=O)[C@@H](NC(=O)[C@H](CCCNC(=N)N)NC(=O)[C@@H](N)CCCCN)[C@@H](C)CC)C(C)C)C(=O)N[C@@H](CCCCN)C(=O)N[C@@H](CC(=O)O)C(=O)N[C@@H](Cc1ccccc1)C(=O)N[C@@H](CC(C)C)C(=O)N[C@@H](CCCNC(=N)N)C(=O)N[C@@H](CCCCN)C(=O)N[C@@H](C)C(=O)N[C@@H](CS)C(=O)N[C@@H](CCCCN)C(=O)N[C@@H](CCCCN)C(=O)N1CCC[C@H]1C(=O)O` [CaD21, KRIVQRIKDF LRKACKKP] (H-KRIVQRIKDFLRKACKKP-OH; N-terminus and C-terminus assumed), the MIC in the data set with P. aeruginosa PA-OS (PA-OS) is 200 µg/mL; against MRSA-OS (-OS), more than 200 µg/mL; against S. aureus SH1000 (SH1000, 24 h), 200 µg/mL. Also, the “IC50 (concentration causing 50% inhibition of cell viability)” value in data set [2] was more than 200 µg/mL.
With `CC[C@H](C)[C@H](NC(=O)[C@H](CCCNC(=N)N)NC(=O)[C@H](CCC(N)=O)NC(=O)[C@@H](NC(=O)[C@@H](NC(=O)[C@H](CCCNC(=N)N)NC(=O)[C@@H](N)CCCCN)[C@@H](C)CC)C(C)C)C(=O)N[C@@H](CCCCN)C(=O)N[C@@H](CC(=O)O)C(=O)N[C@@H](Cc1c[nH]c2ccccc12)C(=O)N[C@@H](CC(C)C)C(=O)N[C@@H](CCCNC(=N)N)C(=O)N[C@@H](CCCCN)C(=O)N[C@@H](CS)C(=O)N[C@@H](CS)C(=O)N[C@@H](CCCCN)C(=O)N[C@@H](CCCCN)C(=O)N1CCC[C@H]1C(=O)O` [CaD22, KRIVQRIKDW LRKCCKKP] (H-KRIVQRIKDWLRKCCKKP-OH; N-terminus and C-terminus assumed), the MIC with P. aeruginosa PA-OS (setting [4]) is 87.0 µM; in the data set with P. aeruginosa PA-OS (PA-OS), 200 µg/mL; with P. aeruginosa PAO1-L (setting [5]), 87.0 µM; with P. aeruginosa PAO1-L (PAO1, 24 h), 200 µg/mL; in the data set with MRSA-OS (setting [4]), more than 87.0 µM; in the data set on MRSA-OS (-OS) it was more than 200 µg/mL. Further, the MIC in the data set on S. aureus SH1000 (setting [5]) was 43.5 µM; in the data set with S. aureus SH1000 (150 mM NaCl, caMHB, 24 h, read-out: MIC), more than 87.0 µM. In addition, the “IC50 (concentration causing 50% inhibition of cell viability)” value in data set [2] was more than 200 µg/mL. In addition, the “Imax (%): percentage of inhibition of cell viability at 200 µg/ml” value in data set [2] (HCE-2, CCK-8 assay, 200 µg/ml, mean (SD)) was 34.3 (8.2) %.
For the molecule `CC[C@H](C)[C@H](NC(=O)[C@H](CCCCN)NC(=O)[C@H](CCC(=O)O)NC(=O)[C@H](CCCCN)NC(=O)[C@H](CO)NC(=O)[C@H](CCCCN)NC(=O)[C@H](CCCNC(=N)N)NC(=O)[C@H](Cc1ccccc1)NC(=O)[C@H](Cc1ccccc1)NC(=O)[C@H](CC(=O)O)NC(=O)CNC(=O)[C@H](CC(C)C)NC(=O)[C@@H](N)CC(C)C)C(=O)NCC(=O)N[C@@H](CCCCN)C(=O)N[C@@H](CCC(=O)O)C(=O)N[C@@H](Cc1ccccc1)C(=O)N[C@@H](CCCCN)C(=O)N[C@@H](CCCNC(=N)N)C(=O)N[C@H](C(=O)N[C@H](C(=O)N[C@@H](CCC(N)=O)C(=O)N[C@@H](CCCNC(=N)N)C(=O)N[C@H](C(=O)N[C@@H](CCCCN)C(=O)N[C@@H](CC(=O)O)C(=O)N[C@@H](Cc1ccccc1)C(=O)N[C@@H](CC(C)C)C(=O)N[C@@H](CCCNC(=N)N)C(=O)N[C@@H](CC(N)=O)C(=O)N[C@@H](CC(C)C)C(=O)N[C@H](C(=O)N1CCC[C@H]1C(=O)N[C@@H](CCCNC(=N)N)C(=O)N[C@H](C(=O)N[C@@H](CCC(=O)O)C(=O)N[C@@H](CO)C(=O)O)[C@@H](C)O)C(C)C)[C@@H](C)CC)C(C)C)[C@@H](C)CC` [LL37, LLGDFFRKSKEKIGKEFKRIVQRIKDFLRNLVPRTES, reference compound], the MIC in data set [3] was 25 to 50 µg/mL; against P. aeruginosa PAO1-L (0 mM NaCl, caMHB, 24 h), 50 µg/mL; against P. aeruginosa PAO1-L (setting [6]), 50 µg/mL; with P. aeruginosa PAO1-L (setting [5]), 11.1 µM; against MRSA-OS (0 mM NaCl, caMHB), 25 µg/mL; against MRSA-OS (0 mM NaCl, caMHB, listed as LL-37), 25 µg/mL. For the same molecule, the MIC turned out to be 5.6 µM in the data set with MRSA-OS (setting [4]); 25 µg/mL in the data set on S. aureus SH1000 (0 mM NaCl, caMHB, 24 h); 25.0 µg/mL in the data set on S. aureus SH1000 (setting [6]); 5.6 µM in the data set on S. aureus SH1000 (setting [5]).
In the case of “GIGDPVTCLKSGAICHPVFCPRRYKQIGTCGLPGTKCCKKP (disulfide 8-37, 15-30, 20-38 (inferred)) [HBD2, GIGDPVTCLKSGAICHPVFCPRRYKQIGTCGLPGTKCCKKP]”, the MIC in data set [3] was 100 µg/mL.

One may read the CC50 as the concentration that lowers cell viability or growth by half. A high value points to better tolerance by the cells.
